The source of these data is patent US9145351B2, “Azole derivatives, methods for producing the same, intermediate thereof, agro-horticultural agents” (KUREHA CORPORATION, priority 2009, dated 2015).

In general, inhibition refers to the change of the read-out against control, counted positive when it falls. Usually EC80 stands for the point of the concentration-response curve where the effect stands at 80%.

Experiment [1] relates to Puccinia recondita. As to the kind of experiment: Efficacy test against wheat brown rust, 100 mg/L and 10 mg/L (Experimental Example 2). To be noted: nine to 14 days after inoculation; for efficacy compared with compound (1): 10 mg/L sprayed at 1,000 L/ha; for pest or weed control at 100 µg/mL: Puccinia recondita, 336 h, 100 mg/L sprayed at 1,000 L/ha, read-out: Protective value. It counts as in vivo. As to the method: Onto a wheat plant (variety: NORIN No. 61) grown to the two-leaf phase using a square plastic pot (6 cm×6 cm), a wettable formulation such as Formulation Example 1 which was diluted and suspended in water at a certain concentration (100 mg/L and 10 mg/L) was sprayed at a rate of 1,000 L/ha. The sprayed leaves were air-dried, and inoculated with spore suspension of Puccinia recondita (adjusted at 200 spores/vision, […] was added at 60 ppm) by spraying, and kept at 25 degrees C. and a high humidity for 48 hours. Thereafter, the plant was kept in a greenhouse. Nine to 14 days after inoculation, the wheat brown rust lesion degree was investigated, and the protective value was calculated by the following equation. Protective value (%)=(1-lesion degree in sprayed plot/lesion degree in unsprayed plot)×100

Experiment [2] relates to Fusarium graminearum. The experiment is described as follows: whole plant or invertebrate. Format: in vivo. To be noted: in Triticum aestivum, 168 h, read-out: Protective value.
In experiment [3] the test system is Aureobasidium sp. As to the kind of experiment: Plate medium assay, industrial material deteriorating microorganism, Aureobasidium (Experimental Example 5). To be noted: treatment at 50 mg/l, PDA plate medium, read-out: growth inhibition grade. It counts as cell-based. As for the experimental part: (§1) In this Experimental Example, the fungicidal effects of the inventive compounds on various phytopathogenic fungi for plants and hazardous microorganism for industrial materials were examined by the methods described below. Each inventive compound was dissolved in 2 ml of dimethyl sulfoxide. 0.6 ml of this solution was added to 60 nil of a PDA medium (potato dextrose agar medium) at about 60 degrees C., which was mixed thoroughly in a 100-ml conical flask, and poured into a dish, where it was solidified, thereby obtaining a plate medium containing the inventive compound at 50 mg/L and 5 mg/L. On the other hand, a subject microorganism previously cultured on a plate medium was cut out using a cork borer whose diameter was 4 mm, and inoculated to the test compound-containing plate medium described above. […] The growth degree of the microorganism on the test compound-containing plate medium thus observed was compared with the growth degree of the microorganism in the untreated group, and % mycelial growth inhibition was calculated by the following equation. R=100(dc-dt)/dc wherein R=% mycelial extension inhibition, dc=flora diameter in untreated plate, dt=flora diameter in treated plate. The results obtained as described above were evaluated as one of the 5 grades according to the following criteria.

Experiment [4] has as its system Penicillium sp. As to the kind of experiment: Plate medium assay, industrial material deteriorating microorganism, Penicillium (Experimental Example 5). To be noted: treatment at 50 mg/l, PDA plate medium, read-out: growth inhibition grade. It counts as cell-based. As for the experimental part:
as §1

Experiment [5] relates to Aspergillus sp. The experiment is described as follows: Plate medium assay, industrial material deteriorating microorganism, Aspergillus (Experimental Example 5). The settings on record: treatment at 50 mg/l, PDA plate medium, read-out: growth inhibition grade. It counts as cell-based. As to the method:
as §1

The test system of experiment [6] is Coriolus versicolor. The experiment is described as follows: Plate medium assay, wood denaturing microorganism Kawaratake (Experimental Example 5). It counts as cell-based. To be noted: Trametes versicolor; treatment at 50 mg/l, PDA plate medium; read-out: growth inhibition grade. As to the method:
as §1

Experiment [7] deals with Mucor sp. As to the kind of experiment: Plate medium assay, industrial material deteriorating microorganism, Mucor (Experimental Example 5). Format: cell-based. The settings on record: treatment at 50 mg/l, PDA plate medium, read-out: growth inhibition grade. As to the method: as §1
In experiment [8] the test system is Cladosporium sp. As to the kind of experiment: Plate medium assay, industrial material deteriorating microorganism, Cladosporium (Experimental Example 5). It counts as cell-based. To be noted: treatment at 50 mg/l, PDA plate medium, read-out: growth inhibition grade. As to the method:
as §1

For experiment [9], the system named is Trichoderma sp. The experiment is described as follows: Plate medium assay, industrial material deteriorating microorganism, Trichoderma (Experimental Example 5). The settings on record: treatment at 50 mg/l, PDA plate medium, read-out: growth inhibition grade. It counts as cell-based. As for the experimental part: as §1
In experiment [10] the test system is Septoria tritici. As to the kind of experiment: Microplate test of biocidal effect on wheat Septoria blotch (Experimental Example 4). It counts as cell-based. To be noted: Zymoseptoria tritici, 240 h; % mycelium growth inhibition, absorbance 550 nm, 20 degrees C. for about 10 days; read-out: activity level (EC80). As for the experimental part: A spore suspension of wheat Septoria blotch (Septoria tritici) (spore concentration: 1×10^6 cells/ml) was prepared, and subjected to 100-fold dilution with a PD medium. A flat 96-well microplate was provided and 1 microliter of the test compound solution formed by dissolution in dimethyl sulfoxide (DMSO) at a concentration 100 times the test concentration was dispensed to the microplate, and then 100 microliter of the medium containing the spore was added and stirred thoroughly. […] R=100×(dc−dt)/dc: R: % mycelium growth inhibition dc: Absorbance of non-treatment zone dt: Absorbance of treatment zone

For experiment [11], the system named is Botrytis cinerea. The experiment is described as follows: Efficacy test against cucumber gray mold (Experimental Example 1). It counts as in vivo. The settings on record: 96 h, 100 mg/L sprayed at 1,000 L/ha, four days after inoculation, read-out: Protective value. As for the experimental part: Onto a cucumber (variety:SHARP1) plant in its cotyledon phase grown using a square plastic pot (6 cm×6 cm), a wettable formulation such as Formulation Example 1 which was diluted and suspended in water at a certain concentrations (100 mg/L and 50 mg/L) was sprayed at a rate of 1,000 L/ha. The sprayed leaves were air-dried, and loaded with a paper disc (8 mm in diameter) soaked in a spore suspension of Botrytis cinerea, and kept at 20 degrees C. and a high humidity. Four days after inoculation, the cucumber gray mold lesion degree was investigated, and the protective value was calculated by the following equation. Protective value (%)=(1−mean lesion degree in sprayed plot/mean lesion degree in unsprayed plot)×100

Where only a bound is given, the exact number is not on record here.

On to `C[C@]1(CCl)CC[C@@H](Cc2ccc(OC(F)(F)F)cc2)[C@]1(O)Cn1cncn1` (relative stereo) [Compound I-79], for which the “efficacy compared with compound (1)” value in experiment [1] is given as “higher efficacy than that of compound (1)”.
Take `Cc1ccc(C[C@@H]2CC[C@](C)(CCl)[C@@]2(O)Cn2cncn2)cc1` (relative stereo) [Compound I-80]: the “efficacy compared with compound (1)” value in experiment [1] was “higher efficacy than that of compound (1)”.
Take `C[C@@]1(CCl)CC[C@H](Cc2ccc(Cl)cc2)[C@]1(O)Cn1cncn1` (racemic) [Compound I-401, (1RS,2RS,5RS)-5-(4-chlorobenzyl)-2-chloromethyl-2-methyl-1-[1,2,4]triazol-1-ylmethylcyclopentanol]: in [2], the pest or weed control at 500 µg/mL is not below 90%. For the same compound, the inhibition at 50 µg/mL in [3], in experiment [4], in [5], in [6], in [7] and in [8] was 60 to 80% throughout. The inhibition at 50 µg/mL in [9] fell in the range of 60 to 80%.
`C[C@]1(CCl)CC[C@@H](Cc2ccccc2F)[C@]1(O)Cn1cncn1` (relative stereo) [Compound I-86]: in [1], the “efficacy compared with compound (1)” value is recorded as “higher efficacy than that of compound (1)”.
Turning to `C[C@]1(CCl)CC[C@@H](Cc2ccc(Cl)cc2)[C@]1(O)Cn1ccnc1` (racemic) [Compound I-244, (1RS,2SR,5SR)-5-(4-chlorobenzyl)-2-chloromethyl-2-methyl-1-imidazol-1-ylmethylcyclopentanol], in [2], the pest or weed control at 500 µg/mL was not below 90%. In addition, the inhibition at 50 µg/mL in [3], in experiment [4], in experiment [5], in [6], in experiment [7] and in [8] was 60 to 80% throughout. In addition, the inhibition at 50 µg/mL in [9] was 60 to 80%. Also, in experiment [1], the pest or weed control at 100 µg/mL was not below 90%. Also, the EC80 in [10] is not above 0.2 µg/mL.
For the compound `O[C@]1(Cn2cncn2)[C@H](Cc2ccc(Cl)cc2)CC[C@@H]1C(F)(F)F` (racemic) [Compound I-65, (1RS,2SR,5SR)-5-(4-chlorobenzyl)-2-trifluoromethyl-1-(1H-1,2,4-triazol-1-ylmethyl)cyclopentanol], in experiment [2], the pest or weed control at 500 µg/mL is not below 90%. In addition, the inhibition at 50 µg/mL in [3], in experiment [4], in experiment [5], in experiment [6], in experiment [7] and in experiment [8] was 60 to 80% in each case. The inhibition at 50 µg/mL in experiment [9] fell in the range of 60 to 80%. Besides, the pest or weed control at 100 µg/mL was not below 90% in [1] and not below 80% in experiment [11].
`C[C@@]1(CCl)CC[C@@H](Cc2ccc(Cl)cc2)[C@]1(O)Cn1cncn1` (racemic) [Compound I-101]: the “efficacy compared with compound (1)” value in experiment [1] is “higher efficacy than that of compound (1)”.
As for `CC[C@]1(CCl)CC[C@@H](Cc2ccc(Cl)cc2)[C@]1(O)Cn1cncn1` (racemic) [Compound I-36, (1RS,2SR,5SR)-5-(4-chlorobenzyl)-2-chloromethyl-2-ethyl-1-(1H-1,2,4-triazol-1-ylmethyl)cyclopentanol], the pest or weed control at 100 µg/mL was not below 80% in experiment [2] and not below 90% in experiment [1]. In addition, the pest or weed control at 500 µg/mL in experiment [2] was not below 90%. Moreover, the inhibition at 50 µg/mL in experiment [3], in experiment [4], in [5], in experiment [6], in experiment [7] and in experiment [8] was 60 to 80% in each case. Also, in experiment [9], the inhibition at 50 µg/mL lay in the range of 60 to 80%. For the same compound, in experiment [1], the “efficacy compared with compound (1)” value is given as “higher efficacy than that of compound (1)”. In experiment [10], the EC80 is not above 0.2 µg/mL.
Take `O[C@]1(Cn2cncn2)[C@H](Cc2ccc(Cl)cc2)CCC1(CCl)CCl` (relative stereo) [Compound I-203, cis-5-(4-chlorobenzyl)-2,2-bis(chloromethyl)-1-(1H-1,2,4-triazol-1-yl)methylcyclopentanol]: in [1], the “efficacy compared with compound (1)” value is “higher efficacy than that of compound (1)”.
Regarding `C[C@]1(CCl)CC[C@H](Cc2ccc(Cl)cc2)[C@]1(O)Cn1cncn1` (racemic) [Compound I-301, (1RS,2SR,5RS)-5-(4-chlorobenzyl)-2-chloromethyl-2-methyl-1-[1,2,4]triazol-1-ylmethylcyclopentanol], the pest or weed control at 500 µg/mL in experiment [2] is not below 90%. Further, the inhibition at 50 µg/mL in [3], in experiment [4], in experiment [5], in [6], in experiment [7] and in experiment [8] was 60 to 80% in each case. In addition, the inhibition at 50 µg/mL in [9] was 60 to 80%. The pest or weed control at 100 µg/mL in experiment [1] was not below 90%. Besides, the concentration for an effect of 80% (EC80) in experiment [10] was not above 0.2 µg/mL.
In the case of `CC(Cl)=C[C@]1(C)CC[C@@H](Cc2ccc(Cl)cc2)[C@]1(O)Cn1cncn1` (racemic) [Compound I-115, (1RS,2SR,5SR)-5-(4-chlorobenzyl)-2-(2-chloropropenyl)-2-methyl-1-(1H-1,2,4-triazol-1-ylmethyl)cyclopentanol], the values for the pest or weed control at 100 µg/mL in experiment [2] and in experiment [1] were not below 80% and not below 90%, respectively. In addition, the pest or weed control at 500 µg/mL in experiment [2] is not below 90%. In addition, the inhibition at 50 µg/mL in [3], in experiment [4], in [5], in [6], in experiment [7] and in experiment [8] was 60 to 80% throughout. In addition, the inhibition at 50 µg/mL in experiment [9] lay within 60 to 80%.
As for `O[C@]1(Cn2cncn2)[C@@H](Cc2ccc(Cl)cc2)CC[C@@H]1C(F)(F)F` (racemic) [Compound I-365, (1RS,2SR,5RS)-5-(4-chlorobenzyl)-2-trifluoromethyl-1-(1H-1,2,4-triazol-1-ylmethyl)cyclopentanol], in experiment [2], the pest or weed control at 500 µg/mL is not below 90%. Further, the inhibition at 50 µg/mL in experiment [3], in [4], in experiment [5], in experiment [6], in experiment [7] and in experiment [8] was 60 to 80% in each case. Further, the inhibition at 50 µg/mL in experiment [9] was in the range of 60 to 80%.
On to `CC[C@]1(CCl)CC[C@@H](Cc2ccccc2)[C@]1(O)Cn1cncn1` (relative stereo) [Compound I-97], for which the “efficacy compared with compound (1)” value in experiment [1] is “higher efficacy than that of compound (1)”.
